# Data taken from publication PMC4348036, “Structural and Functional Investigation of Flavin Binding Center of the NqrC Subunit of Sodium-Translocating NADH:Quinone Oxidoreductase from Vibrio harveyi” (PLoS ONE, 2015).
# Target: T1, holoNqrC' (NqrC subunit of Na+-translocating NADH:quinone oxidoreductase, soluble flavin-binding domain) (Vibrio harveyi, UniProt K5TWQ4)
# T1 construct: soluble truncated NqrC without N-terminal transmembrane helix, residues 33-261, C-terminal 6xHis tag; E. coli, co-expressed with flavin transferase ApbE (plasmids pMshC3 + pdhis3); model covers residues 36-261
# Assay: X-ray crystallography, […] Å
# Details: covalent; phosphoester bond to Thr229, attached in vivo by flavin transferase ApbE; pH 6.8
# T1 sequence (K5TWQ4 33-261): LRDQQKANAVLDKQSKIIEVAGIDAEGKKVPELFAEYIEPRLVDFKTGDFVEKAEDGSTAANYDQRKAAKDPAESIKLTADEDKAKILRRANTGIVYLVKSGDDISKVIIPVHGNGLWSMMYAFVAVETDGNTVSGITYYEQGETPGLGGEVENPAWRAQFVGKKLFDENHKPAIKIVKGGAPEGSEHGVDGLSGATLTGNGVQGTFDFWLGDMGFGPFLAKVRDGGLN
smiles,measurement,value
Cc1cc2nc3c(=O)[nH]c(=O)nc-3n(C[C@H](O)[C@H](O)[C@H](O)COP(=O)(O)O)c2cc1C [FMN],"X-ray crystallography, 1.56 Å",The electron density of Thr229 side chain unambiguously demonstrates its flavinylation.
